Measured values: ChEMBL document CHEMBL1641460, “Potent and selective thiophene urea-templated inhibitors of S6K” (Bioorg Med Chem Lett, 2011)
≈ marks a conversion by molar mass, not a printed value.

Assays:
[1] = target: MAP kinase-activated protein kinase 2 (Homo sapiens) (UniProt P49137); experiment: Inhibition of MAPKAPK2 at 10 uM
[2] = target: Protein kinase C zeta type (Homo sapiens) (UniProt Q05513); experiment: Inhibition of PRKCZ at 1 uM
[3] = target: Insulin receptor (Homo sapiens) (UniProt P06213); experiment: Inhibition of INSR at 1 uM
[4] = target: Myosin light chain kinase 2, skeletal/cardiac muscle (Homo sapiens) (UniProt Q9H1R3); experiment: Inhibition of MYLK2 at 10 uM
CYP3A4 = CYP3A4 (Homo sapiens, UniProt P08684); experiment: Inhibition of CYP3A4 at 3 uM by LC/MS/MS analysis; type: ADME
[5] = target: Serine/threonine-protein kinase Sgk1 (Homo sapiens) (UniProt O00141); experiment: Inhibition of SGK1 at 1 uM
Sequence of Serine/threonine-protein kinase Sgk1 (Homo sapiens) (O00141 whole entry): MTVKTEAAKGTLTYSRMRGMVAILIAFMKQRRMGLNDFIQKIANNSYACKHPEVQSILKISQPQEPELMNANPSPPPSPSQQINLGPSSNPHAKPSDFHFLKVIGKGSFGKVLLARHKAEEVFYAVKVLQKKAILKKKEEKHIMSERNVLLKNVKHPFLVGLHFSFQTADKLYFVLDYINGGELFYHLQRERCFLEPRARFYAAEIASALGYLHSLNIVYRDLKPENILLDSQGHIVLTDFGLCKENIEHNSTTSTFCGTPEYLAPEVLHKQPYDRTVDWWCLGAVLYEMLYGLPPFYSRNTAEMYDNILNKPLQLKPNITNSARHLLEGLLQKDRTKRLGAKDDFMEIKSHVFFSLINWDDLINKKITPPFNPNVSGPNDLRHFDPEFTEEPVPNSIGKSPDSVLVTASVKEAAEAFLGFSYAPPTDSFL

[6] = target: Tyrosine-protein kinase Lck (Homo sapiens) (UniProt P06239); experiment: Inhibition of LCK at 10 uM
[7] = target: Mitogen-activated protein kinase 1 (Homo sapiens) (UniProt P28482); experiment: Inhibition of MAPK1 at 1 uM
Sequence of Mitogen-activated protein kinase 1 (Homo sapiens) (P28482 whole entry): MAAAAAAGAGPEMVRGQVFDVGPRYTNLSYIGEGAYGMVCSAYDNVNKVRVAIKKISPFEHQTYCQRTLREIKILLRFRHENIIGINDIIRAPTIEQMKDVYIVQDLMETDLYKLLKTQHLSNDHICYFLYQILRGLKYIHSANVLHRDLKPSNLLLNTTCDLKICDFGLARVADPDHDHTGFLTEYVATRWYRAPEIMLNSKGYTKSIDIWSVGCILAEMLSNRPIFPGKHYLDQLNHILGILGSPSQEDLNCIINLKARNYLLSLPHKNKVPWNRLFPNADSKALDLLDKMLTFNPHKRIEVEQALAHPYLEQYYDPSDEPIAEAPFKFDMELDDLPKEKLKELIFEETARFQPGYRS

[8] = target: Serine/threonine-protein kinase TAO3 (Homo sapiens) (UniProt Q9H2K8); experiment: Inhibition of TAOK3 at 1 uM
[9] = target: Serine/threonine-protein kinase Chk1 (Homo sapiens) (UniProt O14757); experiment: Inhibition of CHEK1 at 10 uM
Sequence of Serine/threonine-protein kinase Chk1 (Homo sapiens) (O14757 whole entry, canonical isoform): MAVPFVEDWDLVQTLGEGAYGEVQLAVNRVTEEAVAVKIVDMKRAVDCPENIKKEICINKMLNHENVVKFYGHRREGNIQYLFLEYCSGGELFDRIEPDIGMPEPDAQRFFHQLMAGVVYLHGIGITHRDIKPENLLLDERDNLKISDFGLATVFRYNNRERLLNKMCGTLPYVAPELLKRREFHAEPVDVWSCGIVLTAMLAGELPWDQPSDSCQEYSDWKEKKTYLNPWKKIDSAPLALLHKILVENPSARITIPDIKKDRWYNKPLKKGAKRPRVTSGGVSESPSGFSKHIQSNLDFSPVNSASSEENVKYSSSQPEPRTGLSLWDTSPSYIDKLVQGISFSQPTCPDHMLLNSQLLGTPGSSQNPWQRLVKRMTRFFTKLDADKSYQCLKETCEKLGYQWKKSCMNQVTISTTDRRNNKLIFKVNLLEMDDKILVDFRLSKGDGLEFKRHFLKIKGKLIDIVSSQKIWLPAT

[10] = target: Casein kinase I isoform delta (Homo sapiens) (UniProt P48730); experiment: Inhibition of CSNK1D at 1 uM
[11] = target: Hepatocyte growth factor receptor (Homo sapiens) (UniProt P08581); experiment: Inhibition of MET at 1 uM
[12] = target: Voltage-gated inwardly rectifying potassium channel KCNH2 (Homo sapiens, UniProt Q12809); experiment: Displacement of labeled dofetilide from human ERG
[13] = Kinetic solubility of the compound in 50 mM phosphate buffer at pH 6.5; type: physicochemical
[14] = target: Serine/threonine-protein kinase 3 (Homo sapiens) (UniProt Q13188); experiment: Inhibition of STK3 at 10 uM
[15] = target: Ephrin type-A receptor 2 (Homo sapiens) (UniProt P29317); experiment: Inhibition of EPHA2 at 10 uM
Sequence of Ephrin type-A receptor 2 (Homo sapiens) (P29317 whole entry): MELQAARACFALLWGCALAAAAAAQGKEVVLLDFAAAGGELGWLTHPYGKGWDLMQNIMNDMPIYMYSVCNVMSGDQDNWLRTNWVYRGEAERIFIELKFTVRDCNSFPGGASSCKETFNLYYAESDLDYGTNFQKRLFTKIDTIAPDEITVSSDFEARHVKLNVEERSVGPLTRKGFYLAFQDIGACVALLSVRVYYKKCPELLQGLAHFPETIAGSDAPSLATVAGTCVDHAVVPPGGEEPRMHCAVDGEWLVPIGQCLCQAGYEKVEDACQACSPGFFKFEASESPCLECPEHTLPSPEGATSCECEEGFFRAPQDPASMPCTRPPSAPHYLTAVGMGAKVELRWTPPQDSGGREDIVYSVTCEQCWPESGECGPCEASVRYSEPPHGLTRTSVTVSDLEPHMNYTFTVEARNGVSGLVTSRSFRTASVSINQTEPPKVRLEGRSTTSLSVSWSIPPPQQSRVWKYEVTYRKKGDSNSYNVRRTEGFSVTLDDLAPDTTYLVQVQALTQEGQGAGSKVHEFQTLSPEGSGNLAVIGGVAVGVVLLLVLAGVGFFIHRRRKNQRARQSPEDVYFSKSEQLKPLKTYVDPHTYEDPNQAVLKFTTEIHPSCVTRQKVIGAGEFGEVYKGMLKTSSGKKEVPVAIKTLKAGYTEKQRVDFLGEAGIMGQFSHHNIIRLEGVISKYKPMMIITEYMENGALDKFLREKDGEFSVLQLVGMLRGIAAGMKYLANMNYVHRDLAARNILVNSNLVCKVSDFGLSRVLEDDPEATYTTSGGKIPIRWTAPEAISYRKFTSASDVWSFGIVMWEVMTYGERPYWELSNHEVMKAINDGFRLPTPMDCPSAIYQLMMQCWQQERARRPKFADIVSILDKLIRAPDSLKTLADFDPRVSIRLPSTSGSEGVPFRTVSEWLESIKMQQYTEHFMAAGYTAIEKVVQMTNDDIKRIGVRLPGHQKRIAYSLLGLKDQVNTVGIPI

[16] = target: Aurora kinase A (Homo sapiens) (UniProt O14965); experiment: Inhibition of aurora A at 1 uM
Sequence of Aurora kinase A (Homo sapiens) (O14965 whole entry): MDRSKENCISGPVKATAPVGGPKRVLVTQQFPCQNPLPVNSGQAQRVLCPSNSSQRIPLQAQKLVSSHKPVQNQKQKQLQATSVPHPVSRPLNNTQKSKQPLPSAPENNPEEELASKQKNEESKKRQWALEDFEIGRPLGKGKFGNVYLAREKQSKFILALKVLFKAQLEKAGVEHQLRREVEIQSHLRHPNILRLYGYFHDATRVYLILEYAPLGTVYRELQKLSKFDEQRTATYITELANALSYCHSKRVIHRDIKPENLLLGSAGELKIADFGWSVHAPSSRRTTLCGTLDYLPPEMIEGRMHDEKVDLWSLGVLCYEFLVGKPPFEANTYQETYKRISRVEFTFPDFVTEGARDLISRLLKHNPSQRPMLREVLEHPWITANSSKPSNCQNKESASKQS

[17] = target: Serine/threonine-protein kinase MARK1 (Homo sapiens) (UniProt Q9P0L2); experiment: Inhibition of MARK1 at 1 uM
[18] = target: Casein kinase II subunit alpha (Homo sapiens) (UniProt P68400); experiment: Inhibition of CSNK2A1 at 1 uM
[19] = target: Vascular endothelial growth factor receptor 2 (Homo sapiens) (UniProt P35968); experiment: Inhibition of KDR at 1 uM
[20] = target: Glycogen synthase kinase-3 beta (Homo sapiens) (UniProt P49841); experiment: Inhibition of GSK3b at 1 uM
[21] = target: Mitogen-activated protein kinase 1 (Homo sapiens) (UniProt P28482); experiment: Inhibition of MAPK1 at 10 uM
[22] = target: Aurora kinase A (Homo sapiens) (UniProt O14965); experiment: Inhibition of aurora A at 10 uM
CYP1A2 = target: T1, CYP1A2 (Homo sapiens, UniProt P05177); experiment: Inhibition of CYP1A2 at 3 uM by LC/MS/MS analysis; type: ADME
T1 sequence (P05177 whole entry): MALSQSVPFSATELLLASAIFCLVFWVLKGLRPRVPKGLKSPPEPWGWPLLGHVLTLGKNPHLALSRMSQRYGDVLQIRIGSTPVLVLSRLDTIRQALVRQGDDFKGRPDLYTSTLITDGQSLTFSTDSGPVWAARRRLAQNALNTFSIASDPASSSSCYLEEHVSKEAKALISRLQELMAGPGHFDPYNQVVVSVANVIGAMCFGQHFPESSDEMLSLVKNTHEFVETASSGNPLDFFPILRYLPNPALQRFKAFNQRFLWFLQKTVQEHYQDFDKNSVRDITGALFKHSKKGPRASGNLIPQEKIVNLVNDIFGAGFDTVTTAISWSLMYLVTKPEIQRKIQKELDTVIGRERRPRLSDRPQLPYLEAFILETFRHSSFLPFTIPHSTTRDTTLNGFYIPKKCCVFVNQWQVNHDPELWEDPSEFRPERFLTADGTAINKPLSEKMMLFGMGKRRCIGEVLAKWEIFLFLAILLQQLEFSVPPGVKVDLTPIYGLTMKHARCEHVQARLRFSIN

[23] = target: cAMP-dependent protein kinase catalytic subunit alpha (Homo sapiens) (UniProt P17612); experiment: Inhibition of PRKACA at 1 uM
[24] = target: Ephrin type-A receptor 2 (Homo sapiens) (UniProt P29317); experiment: Inhibition of EPHA2 at 1 uM
[25] = target: Mitogen-activated protein kinase kinase kinase 9 (Homo sapiens) (UniProt P80192); experiment: Inhibition of MAP3K9 at 1 uM
[26] = target: Serine/threonine-protein kinase Sgk1 (Homo sapiens) (UniProt O00141); experiment: Inhibition of SGK1 at 10 uM
[27] = target: Serine/threonine-protein kinase Nek2 (Homo sapiens) (UniProt P51955); experiment: Inhibition of NEK2 at 10 uM
[28] = target: Protein kinase C beta type (Homo sapiens) (UniProt P05771); experiment: Inhibition of PRKCB at 10 uM
Sequence of Protein kinase C beta type (Homo sapiens) (P05771 2-671 limits assumed): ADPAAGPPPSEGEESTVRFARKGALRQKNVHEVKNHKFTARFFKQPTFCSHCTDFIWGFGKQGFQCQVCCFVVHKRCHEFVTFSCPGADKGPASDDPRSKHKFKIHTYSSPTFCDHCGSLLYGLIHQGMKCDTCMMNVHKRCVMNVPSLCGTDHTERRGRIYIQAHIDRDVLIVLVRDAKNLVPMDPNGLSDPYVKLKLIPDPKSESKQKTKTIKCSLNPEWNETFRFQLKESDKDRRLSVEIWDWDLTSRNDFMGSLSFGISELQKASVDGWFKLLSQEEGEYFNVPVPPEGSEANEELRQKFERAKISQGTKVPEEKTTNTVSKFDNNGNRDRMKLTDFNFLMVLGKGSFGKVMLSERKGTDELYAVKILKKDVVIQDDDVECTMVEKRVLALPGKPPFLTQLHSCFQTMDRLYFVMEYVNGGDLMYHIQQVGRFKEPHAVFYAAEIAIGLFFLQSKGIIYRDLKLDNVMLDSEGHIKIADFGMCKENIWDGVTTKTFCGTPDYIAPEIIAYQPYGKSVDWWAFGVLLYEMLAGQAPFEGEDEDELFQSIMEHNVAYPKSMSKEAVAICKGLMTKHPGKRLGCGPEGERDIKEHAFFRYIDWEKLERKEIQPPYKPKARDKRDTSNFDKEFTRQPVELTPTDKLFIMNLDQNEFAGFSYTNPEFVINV

[29] = target: Tyrosine-protein kinase ABL1 (Homo sapiens) (UniProt P00519); experiment: Inhibition of ABL1 at 10 uM
[30] = target: RAC-alpha serine/threonine-protein kinase (Homo sapiens) (UniProt P31749); experiment: Inhibition of AKT1 at 10 uM
Sequence of RAC-alpha serine/threonine-protein kinase (Homo sapiens) (P31749 whole entry): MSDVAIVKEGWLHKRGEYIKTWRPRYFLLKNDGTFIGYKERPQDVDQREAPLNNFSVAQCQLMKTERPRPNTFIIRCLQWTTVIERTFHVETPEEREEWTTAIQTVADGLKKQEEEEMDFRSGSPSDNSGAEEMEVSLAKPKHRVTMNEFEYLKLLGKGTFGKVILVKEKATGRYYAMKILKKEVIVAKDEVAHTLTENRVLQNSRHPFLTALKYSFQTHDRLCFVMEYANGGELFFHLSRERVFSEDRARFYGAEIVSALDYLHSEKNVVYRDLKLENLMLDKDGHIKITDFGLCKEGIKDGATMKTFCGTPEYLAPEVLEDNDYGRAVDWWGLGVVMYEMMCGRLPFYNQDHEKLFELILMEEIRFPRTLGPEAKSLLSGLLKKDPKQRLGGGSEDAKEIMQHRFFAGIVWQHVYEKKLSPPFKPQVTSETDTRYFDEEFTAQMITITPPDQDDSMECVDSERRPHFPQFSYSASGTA

[31] = target: Proto-oncogene tyrosine-protein kinase Src (Homo sapiens) (UniProt P12931); experiment: Inhibition of SRC at 10 uM
Sequence of Proto-oncogene tyrosine-protein kinase Src (Homo sapiens) (P12931 2-536 limits assumed): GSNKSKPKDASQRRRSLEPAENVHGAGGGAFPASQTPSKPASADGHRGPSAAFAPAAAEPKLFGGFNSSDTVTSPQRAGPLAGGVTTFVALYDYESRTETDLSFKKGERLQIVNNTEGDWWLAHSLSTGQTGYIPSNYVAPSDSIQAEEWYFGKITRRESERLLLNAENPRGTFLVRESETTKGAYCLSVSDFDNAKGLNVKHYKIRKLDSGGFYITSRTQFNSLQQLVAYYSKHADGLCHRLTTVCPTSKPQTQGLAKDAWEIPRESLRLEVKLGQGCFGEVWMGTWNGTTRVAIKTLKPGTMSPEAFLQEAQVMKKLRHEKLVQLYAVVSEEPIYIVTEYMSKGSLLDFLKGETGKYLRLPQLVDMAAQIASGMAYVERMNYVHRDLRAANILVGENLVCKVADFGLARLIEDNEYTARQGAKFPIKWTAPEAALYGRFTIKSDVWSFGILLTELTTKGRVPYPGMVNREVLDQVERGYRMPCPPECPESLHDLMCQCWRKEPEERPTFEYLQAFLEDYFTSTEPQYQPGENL

[32] = target: Cyclin-dependent kinase 2 (Homo sapiens) (UniProt P24941); experiment: Inhibition of CDK2 at 1 uM
CYP2C9 = CYP2C9 (Homo sapiens, UniProt P11712); experiment: Inhibition of CYP2C9 at 3 uM by LC/MS/MS analysis; type: ADME
[33] = target: Calcium/calmodulin-dependent protein kinase type 1 (Homo sapiens) (UniProt Q14012); experiment: Inhibition of CAMK1 at 10 uM
[34] = target: Cyclin-dependent kinase 6 (Homo sapiens) (UniProt Q00534); experiment: Inhibition of CDK6 at 1 uM
[35] = target: RAC-alpha serine/threonine-protein kinase (Homo sapiens) (UniProt P31749); experiment: Inhibition of AKT1 at 1 uM
[36] = target: High affinity nerve growth factor receptor (Homo sapiens) (UniProt P04629); experiment: Inhibition of NTRK1 at 1 uM
[37] = target: Rho-associated protein kinase 1 (Homo sapiens) (UniProt Q13464); experiment: Inhibition of ROCK1 at 10 uM
[38] = target: Proto-oncogene tyrosine-protein kinase Src (Homo sapiens) (UniProt P12931); experiment: Inhibition of SRC at 1 uM
[39] = target: Protein kinase C zeta type (Homo sapiens) (UniProt Q05513); experiment: Inhibition of PRKCZ at 10 uM
[40] = target: Dual specificity protein kinase CLK1 (Homo sapiens) (UniProt P49759); experiment: Inhibition of CLK1 at 1 uM
[41] = target: Protein kinase C beta type (Homo sapiens) (UniProt P05771); experiment: Inhibition of PRKCB at 1 uM

Sequence of Protein kinase C zeta type (Homo sapiens) (Q05513 whole entry): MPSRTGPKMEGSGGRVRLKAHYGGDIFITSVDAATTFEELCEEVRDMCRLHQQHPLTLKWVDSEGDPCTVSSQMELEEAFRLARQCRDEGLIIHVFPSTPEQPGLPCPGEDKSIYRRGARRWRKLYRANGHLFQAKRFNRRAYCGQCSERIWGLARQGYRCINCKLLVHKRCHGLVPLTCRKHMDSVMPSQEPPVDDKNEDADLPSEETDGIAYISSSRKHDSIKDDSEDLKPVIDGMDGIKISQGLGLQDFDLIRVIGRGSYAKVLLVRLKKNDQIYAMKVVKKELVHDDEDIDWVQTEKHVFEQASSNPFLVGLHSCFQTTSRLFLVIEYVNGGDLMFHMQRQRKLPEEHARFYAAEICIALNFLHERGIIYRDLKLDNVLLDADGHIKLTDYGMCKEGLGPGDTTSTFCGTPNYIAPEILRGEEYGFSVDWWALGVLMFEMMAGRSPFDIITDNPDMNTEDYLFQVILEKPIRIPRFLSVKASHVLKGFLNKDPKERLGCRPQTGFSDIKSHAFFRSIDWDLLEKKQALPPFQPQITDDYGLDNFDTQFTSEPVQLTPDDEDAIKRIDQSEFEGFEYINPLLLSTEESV

- inhibition [1]: 10%
- inhibition [2]: 20%
- inhibition [3]: 0%
- inhibition [4]: 10%
- inhibition at 3 µM (CYP3A4): 0%
- inhibition [5]: 0%
- inhibition [6]: 0%
- inhibition [7]: 10%
- inhibition [8]: 10%
- inhibition [9]: 10%
- inhibition [10]: 20%
- inhibition [11]: 0%
- solubility kinetic [13]: 143 µg/mL (≈ 399 µM)
- inhibition [14]: 0%
- inhibition [15]: 10%
- inhibition [16]: 0%
- inhibition [17]: 20%
- inhibition [18]: 30%
- inhibition [19]: 0%
- inhibition [20]: 10%
- inhibition [21]: 10%
- inhibition [22]: 0%
- inhibition at 3 µM (CYP1A2): 6%
- inhibition [23]: 10%
- inhibition [24]: 10%
- inhibition [25]: 20%
- inhibition [26]: 0%
- inhibition [27]: 10%
- inhibition [28]: 10%
- inhibition [29]: 0%
- inhibition [30]: 0%
- inhibition [31]: 0%
- inhibition [32]: 10%
- inhibition at 3 µM (CYP2C9): 55%
- inhibition [33]: 10%
- inhibition [34]: 0%
- inhibition [35]: 0%
- inhibition [36]: 10%
- inhibition [37]: 10%
- inhibition [38]: 0%
- inhibition [39]: 20%
- inhibition [40]: 10%
- inhibition [41]: 10%
SMILES: CC(C)(C)c1cc(C(=O)O)c(NC(=O)Nc2ccc3[nH]ncc3c2)s1
- inhibition (INH) [12]: 0%
